Source: patent US20070071773A1, “Compositions and methods for the treatment and prophylaxis of infections caused by gram positive bacteria” (priority 2002, published 2007)
“Also recorded” adds a separate entry of the source.

Key:
C5a peptidase = assay: Surface expressed C5a peptidase of GAS in the absence and presence of SilCR; format: cell-based, Group A Streptococcus (GAS); conditions: absence vs presence of SilCR (not shown)
GAS strain JS95 [1] = assay: Murine model of invasive soft-tissue infection: survival and skin lesions after subcutaneous challenge with JS95; format: in vivo, Group A Streptococcus (GAS)
Description: (§1) The ability of GAS to cause lethal infection in ten-gram BALB/c female mice (Harlan Laboratories, Jerusalem, Israel) was assessed as described before [Ravins, M. et al. J. Infect. Dis. 182:1702-11 (2000)]. Briefly, 10^8 CFU of log-phase bacteria were washed twice in PBS, resuspended in 0.1 ml PBS and injected subcutaneously into the back of a mouse. The number of CFU injected was verified for each experiment by plating bacteria on THY-blood agar plates and counting. Each group contained 8 to 10 mice that were observed daily for death and changes in the lesions' properties such as size and depth, or were sacrificed at different times after inoculation for histopathological assessment. To determine the presence of bacteria in skin and spleen, mice were sacrificed; a wide area surrounding the skin lesions was excised, spleens were removed, and organs were homogenized in 10 or 1 ml of sterile PBS, respectively. Aliquots were plated and streptococcal colonies were counted. The Institutional Ethics Committee for animal care approved all animal procedures (approval number MD 79.17-4).
Therefore, the inventors next tested the peptide effect on virulence of the highly invasive strain of the invention. A 17 amino acid peptide, corresponding to the amino acid sequence encoded by the SilCR ORF, was synthesized and purified. Mice were challenged with the highly virulent strain (JS95) in the presence and absence of the 17 amino acid synthetic peptide DIFKLVIDHISMKARKK (also denoted by SEQ ID NO: 32), of a 70% purity.
The ability of the peptide to protect mice inoculated with increasing doses of the bacteria ranging from 10^7 to 10^10 CFU was next examined. […] Mice challenged with a low dose of 10^7 CFU, in the absence of the peptide, died within 4 days after challenge. […] Results were consistent even after 21 days of follow up (data not shown).
Mice were injected under the surface of the skin with 2×10^8 of M14 GAS strain, JS95, without (FIG. 8A) or with 25 μg of the highly purified (90% purity) 17 amino acid peptide (SEQ ID NO: 32) (FIG. 8B).
In order to examine the ability of the 17 amino acid peptide (SEQ ID NO: 32) to protect against bacterial challenge, mice were injected with 200 μg of this peptide 24 hours prior to bacterial challenge. As shown by FIG. 9, the 17 amino acid peptide protects 50% of the mice when injected 24 hours before bacterial challenge of 4×10^8 CFU of JS95 strain.

[2] = Neutrophil influx in mice after injection of the peptide alone; format: in vivo; conditions: without bacteria
Text: This is in a sharp contrast to the paucity of neutrophil influx in mice challenged with JS95 alone (FIG. 11B). Thus, a rapid recruitment of neutrophils appears necessary to confine GAS infection, subsequently preventing a systemic GAS dissemination.

GAS strain JS95 [3] = assay: Histopathology of soft-tissue lesions: neutrophil (PMN) recruitment in mice challenged with JS95; format: in vivo, Group A Streptococcus (GAS); conditions: 10^8 CFU JS95 with 100 μg of 70% pure peptide, 24 h after inoculation, FIG. 11C, 11D
Description: Haematoxylin and eosin stain of the soft-tissue lesions from a mouse challenged with 10^8 CFU of JS95 24 h after inoculation (11A-11B) in the presence of 100 μg of 70% pure peptide (11C, 11D). After 24 hours, skin samples were stained with hematoxiline and eosine and examined by microscopy at 50 (11A, 11C) and 400 (11B, 11D) fold magnification. There is extensive necrosis of fascia, massive presence of bacteria but no infiltration of neutrophils. There were no differences in the histopathology findings as determined in two mice in 4 different experiments.
as §1, with “To determine the presence of bacteria in skin and spleen, mice were sacrificed; a wide area surrounding the skin lesions was excised, spleens were removed, and organs were homogenized in 10 or 1 ml of sterile PBS, respectively.” left out, “The Institutional Ethics Committee for animal care approved all animal procedures (approval number MD 79.17-4).” left out

GAS M1 strain 340 = assay: Murine NF model: lesions after challenge with M1 strain 340; format: in vivo, Group A Streptococcus (GAS); conditions: co-injection of SilCR (50 μg, 90% purified) with 10^8 CFU M1 strain 340; FIG. 16C
Description: 16C. mice infected with 10^8 CFU of M1 strain 340+SilCR (50 μg 90% purified) 48 h after inoculation.
as §1
GAS of M1 and M3 serotypes are commonly associated with invasive disease and NF, and each lack the SilCR gene in their locus. […]

[4] = peptide of 90% purity mixed with 10^8 CFU JS95, subcutaneous, FIG. 6

## DIFKLVIDHISMKARKK (SilCR peptide) [17 amino acid synthetic peptide, predicted mature form of the pheromone peptide encoded by the SilCR ORF; used at 70% or 90% purity]
C5a peptidase
  amount of surface expressed C5a peptidase: did not observe any change
GAS strain JS95 [1]; 3 μg of the 90% purified peptide, JS95 challenge as high as 10^10 CFU, FIG. 16A
  protection of mice (survival): protected mice
GAS strain JS95 [1]; 25 μg peptide (90% purity) with 2×10^8 JS95 under the surface of the skin, FIG. 8
  survival of mice: all mice of this group survived
GAS strain JS95 [1]; 25 μg peptide (90% purity) with 2×10^8 JS95 under the surface of the skin, FIG. 8B, 8D
  skin lesion: small abscess surrounded by a normal skin
GAS strain JS95 [1]; 100 μg peptide (70% purity) injected together with 10^7 CFU JS95, FIG. 5
  protection of mice (survival): partial protection
GAS strain JS95 [1]; 200 μg peptide (70% pure) injected 24 hours before challenge with 4×10^8 CFU JS95, FIG. 9
  mice protected: 50%
GAS strain JS95 [1]; 200 μg peptide (70% pure), challenge with 10^7 and up to 10^9 CFU JS95, FIG. 7
  protection of mice (survival): completely protected
GAS strain JS95 [1]; 200 μg peptide (70% pure), challenge with 10^10 CFU JS95, FIG. 7
  deaths of mice: only one mouse died
GAS strain JS95 [1]; 200 μg peptide (70% purity) injected together with 10^7 CFU JS95, FIG. 5
  protection of mice (survival): complete protection
GAS strain JS95 [1]; challenged with JS95 and SilCR, compared with JS95 alone, FIG. 8B vs 8A
  lesions of mice: significantly smaller, less necrotic and superficial, with defined borders
GAS strain JS95 [1]; peptide of 70% purity, 10^7 CFU JS95, FIG. 5
  dose dependence of protection of mice: dose-dependent
GAS strain JS95 [1]; [4]
  peptide dose at which the protective effect is evident: 3 µg
  peptide dose reaching plateau level of protection: 50 µg
GAS strain JS95 [1]; simultaneously administered at a distant site
  protection of mice when administered at a site distant to the bacterial challenge: nor did it protect mice
[2]
  neutrophil influx: did not stimulate neutrophil recruitment; also recorded: did not induce neutrophil influx
GAS strain JS95 [3]
  recruitment of PMN / neutrophil infiltration at the site of infection: abundant neutrophil infiltration
GAS strain JS95 [3]; listed as peptide
  recruitment of PMN / neutrophil infiltration at the site of infection: significant recruitment of PMN
GAS M1 strain 340
  lesion size and duration: significantly reduced size and duration
